Test results published in ChEMBL document CHEMBL4393697, “Lipophilic efficient phenylthiazoles with potent undecaprenyl pyrophosphatase inhibitory activity” (Eur J Med Chem, 2019).
≈ marks a conversion by molar mass, not a printed value. Calls of active or inactive are those of the source. No cut-off for these calls is given here.

Legend:
Enterococcus faecalis = experiment: Ratio of MBC to MIC for vancomycin resistant Enterococcus faecalis ATCC 51299 by broth microdilution method; type: functional
Escherichia coli = experiment: Bactericidal activity against Escherichia coli JW55031 harboring deltatolC mutant assessed as reduction in bacterial cell growth incubated for 18 to 20 hrs followed by re-plating on tryptic soy agar plates at 37 degC for 18 hrs by broth microdilution assay; type: functional
Listeria monocytogenes = experiment: Ratio of MBC to MIC for Listeria monocytogenes ATCC 19111 by broth microdilution assay; type: functional
Staphylococcus aureus [1] = experiment: Ratio of MBC to MIC for Staphylococcus aureus NRS107 by broth microdilution assay; type: functional
Acinetobacter baumannii = experiment: Antibacterial activity against Acinetobacter baumannii ATCC 19606 assessed as reduction in bacterial cell growth incubated for 18 to 20 hrs by broth microdilution method; type: functional
Staphylococcus aureus [2] = experiment: Ratio of MBC to MIC for Staphylococcus aureus ATCC 6538 by broth microdilution assay; type: functional
Enterococcus faecium [3] = experiment: Ratio of MBC to MIC for vancomycin resistant Enterococcus faecium ATCC 700221 by broth microdilution method; type: functional
Streptococcus pneumoniae [4] = experiment: Ratio of MBC to MIC for Methicillin resistant Streptococcus pneumoniae ATCC 700677 by broth microdilution method; type: functional
Staphylococcus aureus [5] = experiment: Antibacterial activity against methicillin-resistant Staphylococcus aureus USA400 assessed as reduction in CFU at 4 x MIC preincubated for 6 hrs in Tryptic soy broth followed by incubation for 18 to 20 hrs on TSA plate by time-kill assay; type: functional, organism-based
Staphylococcus aureus [6] = experiment: Antibacterial activity against vancomycin resistant Staphylococcus aureus VRS11a assessed as reduction in bacterial cell growth incubated for 18 to 20 hrs by broth microdilution method; type: functional
Streptococcus pneumoniae [7] = experiment: Antibacterial activity against Cephalosporin resistant Streptococcus pneumoniae ATCC 51916 assessed as reduction in bacterial cell growth incubated for 18 to 20 hrs by broth microdilution method; type: functional
[8] = test system: Staphylococcus epidermidis; experiment: Bactericidal activity against methicillin resistant Staphylococcus epidermidis NRS101 assessed as reduction in bacterial cell growth incubated for 18 to 20 hrs followed by re-plating on tryptic soy agar plates at 37 degC for 18 hrs by broth microdilution assay; type: functional
Enterococcus faecium [9] = experiment: Antibacterial activity against vancomycin resistant Enterococcus faecium ATCC 700221 assessed as reduction in bacterial cell growth incubated for 18 to 20 hrs by broth microdilution method; type: functional
Streptococcus pneumoniae [10] = experiment: Ratio of MBC to MIC for Cephalosporin resistant Streptococcus pneumoniae ATCC 51916 by broth microdilution method; type: functional
Staphylococcus aureus [11] = experiment: Antibacterial activity against methicillin-resistant Staphylococcus aureus USA400 treated over 14 passages by broth microdilution assay; type: functional, organism-based
Staphylococcus aureus [12] = experiment: Antibacterial activity against methicillin-resistant Staphylococcus aureus USA400 assessed as reduction in CFU at 4 x MIC preincubated for 12 hrs in Tryptic soy broth followed by incubation for 18 to 20 hrs on TSA plate by time-kill assay; type: functional
Staphylococcus aureus [13] = experiment: Resistance index, ratio of MIC for antibacterial activity against methicillin-resistant Staphylococcus aureus USA400 treated repeatedly over 6 passages to MIC for antibacterial activity against methicillin-resistant Staphylococcus aureus USA400 treated for 18 to 20 hrs by broth microdilution assay; type: functional
Staphylococcus aureus [14] = experiment: Antibacterial activity against methicillin-resistant Staphylococcus aureus USA400 assessed as reduction in CFU at 4 x MIC preincubated for 24 hrs in Tryptic soy broth followed by incubation for 18 to 20 hrs on TSA plate by time-kill assay; type: functional, organism-based
J774 = experiment: Cytotoxicity against mouse J774 cells reduction in cell viability up to 32 ug/ml incubated for 24 hrs by MTS assay; type: cell-based; details: j774, 24 h

SMILES	Ratio (Enterococcus faecalis)	MBC (Escherichia coli) [µg/mL]	Ratio (Listeria monocytogenes)	Ratio (Staphylococcus aureus [1])	MIC (Acinetobacter baumannii) [µg/mL]	Ratio (Staphylococcus aureus [2])	Ratio (Enterococcus faecium [3])	Ratio (Streptococcus pneumoniae [4])	inhibition (Staphylococcus aureus [5])	MIC (Staphylococcus aureus [6]) [µg/mL]	MIC (Streptococcus pneumoniae [7]) [µg/mL]	MBC [8] [µg/mL]	MIC (Enterococcus faecium [9]) [µg/mL]	Ratio (Streptococcus pneumoniae [10])	Activity (Staphylococcus aureus [11])	Activity (Staphylococcus aureus [12]) [log10CFU]	Ratio (Staphylococcus aureus [13])	inhibition (Staphylococcus aureus [14])	Activity (J774)
C/C(=N\NC(=N)N)c1sc(-c2ccc(C#CC3(O)CCCCC3)cc2)nc1C	2	32 (≈ 80.9 µM)	2	2	64 (≈ 162 µM)	2	2	2	Active	1 (≈ 2.53 µM)	8 (≈ 20.2 µM)	4 (≈ 10.1 µM)	1 (≈ 2.53 µM)	2	Active	–	–	–	–
C/C(=N\NC(=N)N)c1sc(-c2ccc(C#CC(C)(C)O)cc2)nc1C	2	16 (≈ 45 µM)	2	2	64 (≈ 180 µM)	2	2	2	–	1 (≈ 2.81 µM)	4 (≈ 11.3 µM)	4 (≈ 11.3 µM)	2 (≈ 5.63 µM)	2	–	–	–	–	–
C/C(=N\NC(=N)N)c1sc(-c2ccc(C#Cc3ccc(C)s3)cc2)nc1C	–	64 (≈ 163 µM)	–	–	32 (≈ 81.3 µM)	–	–	–	–	4 (≈ 10.2 µM)	8 (≈ 20.3 µM)	4 (≈ 10.2 µM)	2 (≈ 5.08 µM)	–	–	3	1	Active	–
C/C(=N\NC(=N)N)c1sc(-c2ccc(C#Cc3ccc(N)cc3)cc2)nc1C	–	16 (≈ 41.2 µM)	–	–	64 (≈ 165 µM)	–	–	–	–	16 (≈ 41.2 µM)	32 (≈ 82.4 µM)	2 (≈ 5.15 µM)	4 (≈ 10.3 µM)	–	–	3	1	Active	Non-Toxic
